From US10221138B2, “Biaryl derivatives as GPR120 agonists” (LG CHEM, LTD., priority 2013, dated 2019) come the findings set out here.

This assay concerns the target T1, hGPR120 (Homo sapiens, UniProt Q5NUL3).
T1 construct: expressed in transfected cells; host or cells: CHO-K1
T1 sequence (Q5NUL3 1-361): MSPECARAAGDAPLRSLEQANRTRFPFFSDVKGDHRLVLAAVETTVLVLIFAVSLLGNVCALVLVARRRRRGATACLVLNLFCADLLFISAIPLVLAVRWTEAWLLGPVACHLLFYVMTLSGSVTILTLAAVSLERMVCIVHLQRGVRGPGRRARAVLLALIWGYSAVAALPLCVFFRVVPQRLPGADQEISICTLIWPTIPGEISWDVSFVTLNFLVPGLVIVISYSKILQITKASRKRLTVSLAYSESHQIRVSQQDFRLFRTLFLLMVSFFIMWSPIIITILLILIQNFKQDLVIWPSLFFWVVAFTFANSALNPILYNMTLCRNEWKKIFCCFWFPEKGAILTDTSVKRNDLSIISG
The experiment in a line: Measurement of activity of GPR120 agonist (cell-based calcium fluorescence assay). The note with it: CHO-K1 cells expressing Ga16 and hGPR120, Calcium 5 dye fluorescence; activity class; read-out: EC50. On the procedure: CHO-K1 cells expressing Ga16 and hGPR120 were dispensed into each well of a 96-well plate (3×10^4 cells/100 μl/well) and then incubated in 5% CO2, 37° C. incubator for 18 hours. Each well was treated with 100 μl of Calcium 5 dye (Molecular Devices) solution including 2% DMSO and then incubated in 5% CO2, 37° C. incubator for 1 hour. Serially diluted GPR120 agonists were prepared to a final concentration of 0.5% DMSO in a 96-well plate.
Fluorescence increased by the serially diluted GPR120 agonists is calculated as a relative percent (%) value based on the fluorescence represented by the treatment of 1% DMSO only. […] The calculation of measurement was carried out by using statistical software (Prizm).
Activity is denoted based on the following criteria: […]
With `O=C(O)CCCOc1ccc(-c2ccccc2NC2CCC2)cc1` [Example 88, 4-[4-[2-(cyclobutylamino)phenyl]phenoxy]butanoic acid], the half-maximal effective concentration (EC50) was 0.2 to 2 µM.
With `O=C(O)CCCOc1c(F)cc(-c2ccccc2NC2CCC2)cc1F` [Example 89, 4-[4-[2-(cyclobutylamino)phenyl]-2,6-difluoro-phenoxy]butanoic acid], the EC50 is below 0.2 µM.
On to `O=C(O)CCCOc1c(F)cc(-c2cccc(NCC3CC3)c2)cc1F` [Example 90, 4-[4-[3-(cyclopropylmethylamino)phenyl]-2,6-difluoro-phenoxy]butanoic acid], for which the EC50 is below 0.2 µM.
Under `CC(C)Nc1cccc(-c2cc(F)c(OCCCC(=O)O)c(F)c2)c1` [Example 91, 4-[2,6-difluoro-4-[3-(isopropylamino)phenyl]phenoxy]butanoic acid] stands below 0.2 µM; under `O=C(O)CCCOc1c(F)cc(-c2cccc(N3CCCC3)c2)cc1F` [Example 92, 4-[2,6-difluoro-4-(3-pyrrolidin-1-ylphenyl)phenoxy]butanoic acid], below 0.2 µM; under `CCCNc1cccc(-c2cc(F)c(OCCCC(=O)O)c(F)c2)c1` [Example 94, 4-[2,6-difluoro-4-[3-(propylamino)phenyl]phenoxy]butanoic acid], 0.2 to 2 µM.
Turning to `O=C(O)CCCOc1c(F)cc(-c2cc(Cl)ccc2NC2CCCC2)cc1F` [Example 95, 4-[4-[5-chloro-2-(cyclopentylamino)phenyl]-2,6-difluoro-phenoxy]butanoic acid], the EC50 fell in the range of 0.2 to 2 µM.
As for `O=C(O)CCCOc1c(F)cc(-c2cc(F)ccc2NC2CCCC2)cc1F` [Example 96, 4-[4-[2-(cyclopentylamino)-5-fluoro-phenyl]-2,6-difluoro-phenoxy]butanoic acid], the EC50 is below 0.2 µM.
On to `O=C(O)CCCOc1c(F)cc(-c2cccc(C3CCCC3)c2)cc1F` [Example 97, 4-[4-(3-cyclopentylphenyl)-2,6-difluoro-phenoxy]butanoic acid], for which the concentration giving a half-maximal response (EC50) is below 0.2 µM.
Under `O=C(O)CCCOc1c(F)cc(-c2cccc(CC3CCCC3)c2)cc1F` [Example 98, 4-[4-[3-(cyclopentylmethyl)phenyl]-2,6-difluoro-phenoxy]butanoic acid] stands 0.2 to 2 µM; under `O=C(O)CCCOc1c(F)cc(-c2ccccc2CC2CCCC2)cc1F` [Example 99, 4-[4-[2-(cyclopentylmethyl)phenyl]-2,6-difluoro-phenoxy]butanoic acid], below 0.2 µM; under `O=C(O)CCCOc1c(F)cc(-c2cccc(CC3CCCC3)n2)cc1F` [Example 100, 4-[4-[6-(cyclopentylmethyl)-2-pyridyl]-2,6-difluoro-phenoxy]butanoic acid], below 0.2 µM.
For `O=C(O)CCCOc1c(F)cc(-c2ccccc2CC2CCC2)cc1F` [Example 101, 4-[4-[2-(cyclobutylmethyl)phenyl]-2,6-difluoro-phenoxy]butanoic acid], the EC50 is below 0.2 µM.
Under `O=C(O)CCCOc1c(F)cc(-c2cccc(CC3CCC3)c2)cc1F` [Example 102, 4-[4-[3-(cyclobutylmethyl)phenyl]-2,6-difluoro-phenoxy]butanoic acid] stands below 0.2 µM; under `O=C(O)CCCOc1c(F)cc(-c2cccc(CC3CCC3)n2)cc1F` [Example 103, 4-[4-[6-(cyclobutylmethyl)-2-pyridyl]-2,6-difluoro-phenoxy]butanoic acid], below 0.2 µM; under `O=C(O)CCCOc1c(F)cc(-c2ccccc2C2CCCC2)cc1F` [Example 104, 4-[4-(2-cyclopentylphenyl)-2,6-difluoro-phenoxy]butanoic acid], below 0.2 µM.
Take `O=C(O)CCCOc1c(F)cc(-c2cccc(C3CCCC3)n2)cc1F` [Example 105, 4-[4-(6-cyclopentyl-2-pyridyl)-2,6-difluoro-phenoxy]butanoic acid]: the EC50 is below 0.2 µM.
With `CC(C)Cc1ncccc1-c1cc(F)c(OCCCC(=O)O)c(F)c1` [Example 106, 4-[2,6-difluoro-4-(2-isobutyl-3-pyridyl)phenoxy]butanoic acid] the figure was 2 to 20 µM; with `O=C(O)CCCOc1c(F)cc(-c2cccnc2C2CCCC2)cc1F` [Example 107, 4-[4-(2-cyclopentyl-3-pyridyl)-2,6-difluoro-phenoxy]butanoic acid], 0.2 to 2 µM; with `O=C(O)CCCOc1c(F)cc(-c2cccnc2CC2CCCC2)cc1F` [Example 108, 4-[4-[2-(cyclopentylmethyl)-3-pyridyl]-2,6-difluoro-phenoxy]butanoic acid], below 0.2 µM.
Turning to `O=C(O)CCCOc1c(F)cc(-c2cccnc2-n2cccc2)cc1F` [Example 109, 4-[2,6-difluoro-4-(2-pyrrol-1-yl-3-pyridyl)phenoxy]butanoic acid], the 50% effective concentration (EC50) is 0.2 to 2 µM.
For `Cc1cnn(-c2ncccc2-c2cc(F)c(OCCCC(=O)O)c(F)c2)c1` [Example 110, 4-[2,6-difluoro-4-[2-(4-methylpyrazol-1-yl)-3-pyridyl]phenoxy]butanoic acid], the EC50 was above 20 µM.
With `O=C(O)CCCOc1c(F)cc(-c2cccnc2N2CCOCC2)cc1F` [Example 111, 4-[2,6-difluoro-4-(2-morpholino-3-pyridyl)phenoxy]butanoic acid], the EC50 was above 20 µM.
Under `O=C(O)CCCOc1c(F)cc(-c2cccnc2NCC2CCOCC2)cc1F` [Example 112, 4-[2,6-difluoro-4-[2-(tetrahydropyran-4-ylmethylamino)-3-pyridyl]phenoxy]butanoic acid] stands above 20 µM; under `C[C@@H](CCC(=O)O)Oc1c(F)cc(-c2cccnc2SC2CCC2)cc1F` [Example 114, (4S)-4-[4-(2-cyclobutylsulfanyl-3-pyridyl)-2,6-difluoro-phenoxy]pentanoic acid], below 0.2 µM; under `C[C@H](CCC(=O)O)Oc1c(F)cc(-c2cccc(OC3CCC3)c2)cc1F` [Example 116, (4R)-4-[4-[3-(cyclobutoxy)phenyl]-2,6-difluoro-phenoxy]pentanoic acid], below 0.2 µM.
With `C[C@H](CCC(=O)O)Oc1c(F)cc(-c2cccc(Oc3ccccc3)c2)cc1F` [Example 118, (4R)-4-[2,6-difluoro-4-(3-phenoxyphenyl)phenoxy]pentanoic acid], the EC50 is below 0.2 µM.
With `CC(C)Oc1cccc(-c2cc(F)c(SCC3(CC(=O)O)CC3)c(F)c2)c1` [Example 121, [1-(3,5-difluoro-3′-isopropoxy-biphenyl-4-ylsulfanylmethyl)-cyclopropyl]-acetic acid] the figure was below 0.2 µM; with `O=C(O)CCCSc1c(F)cc(-c2cccc(OC3CCCC3)c2)cc1F` [Example 122, 4-(3′-cyclopentyloxy-3,5-difluoro-biphenyl-4-ylsulfanyl)-butyric acid], below 0.2 µM; with `O=C(O)CCCSc1ccc(-c2cccnc2OC2CCCC2)cc1` [Example 123, 4-[4-(2-cyclopentyloxy-pyridin-3-yl)-phenylsulfanyl]-butyric acid], below 0.2 µM.
As for `O=C(O)CCCSc1ccc(-c2cccnc2OCC2CC2)cc1` [Example 124, 4-[4-(2-cyclopropylmethoxy-pyridin-3-yl)-phenylsulfanyl]-butyric acid], the EC50 is 0.2 to 2 µM.
With `O=C(O)CCCSc1ccc(-c2cccc(Oc3ccccc3)c2)cc1` [Example 125, 4-(3′-phenoxy-biphenyl-4-ylsulfanyl)-butyric acid] the figure was below 0.2 µM; with `O=C(O)CCCSc1ccc(-c2cccc(OC3CCCC3)c2)cc1` [Example 126, 4-(3′-cyclopentyloxy-biphenyl-4-ylsulfanyl)-butyric acid], below 0.2 µM.
With `CCCOc1cccc(-c2ccc(SCCCC(=O)O)cc2)c1` [Example 127, 4-(3′-propoxy-biphenyl-4-ylsulfanyl)-butyric acid], the EC50 is below 0.2 µM.
As for `O=C(O)CCCSc1ccc(-c2cccc(OC3CCC3)n2)cc1` [Example 128, 4-[4-(6-cyclobutoxy-pyridin-2-yl)-phenylsulfanyl]-butyric acid], the EC50 is below 0.2 µM.
For the compound `O=C(O)CCCSc1ccc(-c2cccc(OC3CCCC3)n2)cc1` [Example 129, 4-[4-(6-cyclopentyloxy-pyridin-2-yl)-phenylsulfanyl]-butyric acid], the EC50 lay within 0.2 to 2 µM.
Under `CC(C)Oc1cccc(-c2ccc(SCCCC(=O)O)cc2)n1` [Example 130, 4-[4-(6-isopropoxy-pyridin-2-yl)-phenylsulfanyl]-butyric acid] stands below 0.2 µM; under `CC(C)Oc1ncccc1-c1ccc(SCCCC(=O)O)cc1` [Example 131, 4-[4-(2-isopropoxy-pyridin-3-yl)-phenylsulfanyl]-butyric acid], 0.2 to 2 µM.
Under `CCCOc1cccc(-c2ccc(SCCCC(=O)O)cc2)n1` [Example 132, 4-[4-(6-propoxy-pyridin-2-yl)-phenylsulfanyl]-butyric acid] stands below 0.2 µM.
Turning to `O=C(O)CCCSc1ccc(-c2cccc(SC3CCCC3)n2)cc1` [Example 133, 4-[4-(6-cyclopentylsulfanyl-pyridin-2-yl)-phenylsulfanyl]-butyric acid], the EC50 is 0.2 to 2 µM.
